Entries after “also recorded” stand apart in the source; their conditions may differ.

The nature of series [1]: Plasma pharmacokinetic time course in mice after a single oral dose. It counts as in vivo. Conditions: single oral dose 10 mg/kg (FIG. 4a). The procedure:
Blood plasma and tissue samples to be used for analysis were immediately frozen on dry ice and stored at −80° C. until analysis. Concentrations of Compound 1 in samples were quantified using high-performance liquid chromatography with tandem mass spectrometry (LC-MS/MS). Compound 1 and its internal standard (deuterated Compound 1) were recovered by protein precipitation extraction from samples.
For the plasma pharmacokinetic time course study, a standard curve was made to cover concentrations between 0.001 ug/mL and 3.0 μg/mL. The lower limit of quantification (LLOQ) for Compound 1 (either version) in plasma was 0.001 μg/mL. (FIG. 4a)

Series [2] concerns PDA tumors in KPC mice. Nature of the series: KPC intervention/survival study. It counts as in vivo. Conditions: KPC mice (FIGS. 7a, 7b). The procedure: Tumor formation in KPC mice was monitored by weekly palpation until the detection of a mass. Upon positive palpation, the mass was monitored by twice weekly ultrasound until the tumor reached an enrollable size of 4-7 mm average diameter. Once enrollable, KPC mice were randomly enrolled into a treatment arm of the intervention study. Mice were treated with vehicle, Compound 1 (17 mg/kg, PO, b.i.w.), gemcitabine alone (100 mg/kg, IP, b.i.w.), or Compound 1+gemcitabine. Mice receiving Compound 1 also received gemcitabine vehicle (saline, IP, b.i.w.) at a volume (μL) of 50× body weight (g). Mice receiving gemcitabine also received Compound 1 vehicle (0.5% hydroxypropylmethylcellulose with 0.1% Tween80 (w/v), PO, b.i.w.) at a volume (μL) of 5.7× body weight (g). All drug and vehicle combinations were administered simultaneously.
Tumor ultrasonography and volume quantification were carried out as described in Sastra S A, Olive K P, Quantification of murine pancreatic tumors by high-resolution ultrasound, Methods Mol Biol 2013; 980:249-66. […]
To prepare samples for immunohistochemistry, tissues were first fixed overnight in 10% phosphate-buffered formalin and then stored in 70% ethanol for long-term storage. […] Next, antigen retrieval was carried out in an experimentally determined, antibody-specific antigen retrieval buffer (usually 10 mM citrate, pH 6.0 or 10 mM Tris, pH 10.0). […]

Series [3] deals with tubulin. The experiment in a line: Immunocytochemistry of tubulin and DAPI in Aspc1 cells. The format is cell-based, human. Conditions: 24 hours, relative to vehicle (FIGS. 11c, 11d). The procedure:
Cells were seeded onto glass coverslips in 12-well plates. Coverslips were prepared by soaking in 1N HCl (60° C., 6 hours), washing in 70% ethanol, and coating with poly-l-lysine (Sigma, P5899) according to manufacturer's instructions. Cells were seeded such that they would be 50% confluent the following day. Cells were then treated with vehicle (DMSO, <0.003%) or 1 μM Compound 1 and incubated for 24 hours. Following treatment, cells were washed with TBS and free tubulin was extracted with Brinkley Buffer 1980 (80 mM PIPES pH 6.8, 1 mM MgCl2, 1 mM EGTA) supplemented with 4 mM EGTA and 0.5% Triton-X (30 seconds). After extraction, cells were fixed for 20 minutes in 4% formaldehyde diluted in Cytoskeleton Buffer (10 mM MES pH 6.1, 138 mM KCl, 3 mM MgCl2, 2 mM EGTA) supplemented with 0.32M sucrose. […]
Confocal imaging was performed using an A1 laser scanning confocal attachment on an Eclipse Ti microscope stand using a 60x/1.49 ApoTIRF oil-immersion objective and standard lasers and filter sets (Nikon Instruments, Melville, N.Y.). […] Images were visualized, analyzed, and prepared for publication using the Fiji distribution of ImageJ (Schindelin J, Arganda-Carreras I, Frise E, et al. Fiji: an open-source platform for biological-image analysis. Nature Methods 2012; 9:676-682). […]

Regarding `Cc1nc2ccc(F)cc2n1-c1nc(N)c(F)c(Nc2ccc(C(F)(F)F)cc2)n1` [Compound 1, 5-fluoro-2-(6-fluoro-2-methyl-1H-benzo[d]imidazol-1-yl)-N4-[4-(trifluoromethyl)phenyl]pyrimidine-4,6-diamine], the “CNS penetration / brain distribution” value in series [1] was “penetrates the CNS and distributes into brain tissues”. Further, the “plasma / circulating half-life” value in series [1] (10 mg/kg) is on record as “long circulating half-life; also recorded: long plasma half-life”. The “tumor volumes by high resolution 3D ultrasound” value in series [2] was “time-dependent decrease in KPC mouse model PDA tumor volume”. The “tubulin staining in Aspc1 cells” value in series [3] is “significant reduction in tubulin formation”.

(Values after patent publication US12023335B2, “Method for treating pancreatic cancer” (PTC THERAPEUTICS, INC., priority 2018, dated 2024).)
